Assay results: patent US20060241132A1, “Spiro derivatives and adhesion molecule inhibitors comprising the same as active ingredient” (Toray Industries, Inc. A Corporation of Japan, priority 2002, published 2006)

How the values were obtained:
soluble VLA-4 = soluble VLA-4 (Homo sapiens, UniProt P05556+P13612); experiment: Inhibition of binding between CS-1 peptide and soluble VLA-4; settings: absorbance at 490 nm, read-out: Inhibitory activity (IC50: nM)
Experimental: The inhibitory activity of the compound according to the present invention against the adhesion of VLA-4 may be determined by using an adhesion-measuring system in which the adhesion between VLA-4-expressing cells such as Ramos cells or Jurkat cells and fibronectin or fibronectin fragment such as a peptide containing CS-1 sequence (Gly Pro Glu He Leu Asp Val Pro Ser Thr) (hereinafter referred to as “CS-1 peptide”) immobilized on an immunoplate is measured. Alternatively, a binding-measuring system in which the adhesion between VLA-4 protein and fibronectin or fibronectin fragment such as CS-1 peptide immobilized on an immunoplate is measured may be used. In the present invention, it is preferred to evaluate the inhibitory activity of a compound using a binding-measuring system of soluble VLA-4 with CS-1 peptide (WO 98/32771), but the method is not restricted thereto. When testing the inhibitory effect of a compound, it is preferred to mix the soluble VLA-4 and the test compound beforehand.
Inhibitory Effect of Compounds Against Binding between CS-1 Peptide and Soluble VLA-4
The test compounds were evaluated in accordance with the method described in WO 98/32771. That is, in accordance with the teaching of a report (J. Bio. Chem., 262, 6886 (1987)), a conjugate between a peptide (Gys Leu His Gly Pro Glu Glu Ile Leu Asp Val Pro Ser Thr) containing CS-1 sequence and rabbit IgG (Sigma) was prepared. […]
Each compound and soluble VLA-4 (100 μl) were preliminarily reacted at room temperature for 20 minutes, and then the resulting mixture was allowed to react with the CS-1 peptide in each well at 30° C. for 3 hours. […] Then o-phenylenediamine as a substrate was added to color the reaction solution, and the absorbance at 490 nm was measured. From this absorbance, the binding inhibitory activity of each compound was determined.

[1] = test system: DNFB-induced ear swelling in Balb/c mouse; experiment: Mouse allergic inflammation: DNFB-induced ear swelling after anti-DNP IgE sensitization; assay type: in vivo; settings: male Balb/c mouse, anti-DNP IgE sensitized
Experimental: Inhibitory Effect of Compounds Against Mouse Allergic Inflammation
Using a seven-week old male Balb/c mouse (Charles River Japan, Inc.), sensitization was carried out by intravenously administering anti-DNP mouse IgE antibody. Twenty-four hours after sensitization, 0.38% DNFB (2,4-dinitrofluorobenzene) which was dissolved in a mixed solution of acetone:olive oil at 4:1 was applied to the right auricle of the mouse to induce inflammation. The thickness of both auricles was measured each hour after induction with a thickness gauge to calculate the ear swelling ratio (%) after induction versus pre-induction. The test compounds were dissolved in ethanol for applying to the auricle before induction.

soluble VLA-4, sequence (P13612 35-977 limits assumed): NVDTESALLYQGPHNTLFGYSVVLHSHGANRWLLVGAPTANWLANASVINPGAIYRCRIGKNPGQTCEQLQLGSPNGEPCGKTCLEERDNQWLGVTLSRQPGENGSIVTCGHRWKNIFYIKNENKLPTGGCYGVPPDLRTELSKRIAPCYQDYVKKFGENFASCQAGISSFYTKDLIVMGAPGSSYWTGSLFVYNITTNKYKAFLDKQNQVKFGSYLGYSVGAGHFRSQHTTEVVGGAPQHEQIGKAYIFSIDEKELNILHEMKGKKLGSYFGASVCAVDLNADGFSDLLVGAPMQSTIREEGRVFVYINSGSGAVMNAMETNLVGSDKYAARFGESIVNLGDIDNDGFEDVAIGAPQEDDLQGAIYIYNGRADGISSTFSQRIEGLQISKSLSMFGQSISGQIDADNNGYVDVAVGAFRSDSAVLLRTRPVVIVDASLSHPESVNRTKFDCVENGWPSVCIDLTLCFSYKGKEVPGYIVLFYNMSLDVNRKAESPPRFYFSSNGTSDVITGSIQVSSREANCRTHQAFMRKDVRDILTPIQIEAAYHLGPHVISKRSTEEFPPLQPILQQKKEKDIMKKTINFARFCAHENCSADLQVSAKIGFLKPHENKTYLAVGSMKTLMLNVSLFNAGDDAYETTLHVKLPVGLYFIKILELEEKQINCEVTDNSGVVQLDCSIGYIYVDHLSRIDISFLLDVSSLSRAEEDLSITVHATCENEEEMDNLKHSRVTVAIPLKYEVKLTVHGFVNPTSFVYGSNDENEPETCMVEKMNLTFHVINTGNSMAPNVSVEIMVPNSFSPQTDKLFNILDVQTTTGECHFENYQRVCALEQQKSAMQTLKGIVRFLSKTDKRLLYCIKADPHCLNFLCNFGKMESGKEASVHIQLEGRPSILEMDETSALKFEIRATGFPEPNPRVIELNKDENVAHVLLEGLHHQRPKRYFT
soluble VLA-4, sequence (P05556 21-728 limits assumed): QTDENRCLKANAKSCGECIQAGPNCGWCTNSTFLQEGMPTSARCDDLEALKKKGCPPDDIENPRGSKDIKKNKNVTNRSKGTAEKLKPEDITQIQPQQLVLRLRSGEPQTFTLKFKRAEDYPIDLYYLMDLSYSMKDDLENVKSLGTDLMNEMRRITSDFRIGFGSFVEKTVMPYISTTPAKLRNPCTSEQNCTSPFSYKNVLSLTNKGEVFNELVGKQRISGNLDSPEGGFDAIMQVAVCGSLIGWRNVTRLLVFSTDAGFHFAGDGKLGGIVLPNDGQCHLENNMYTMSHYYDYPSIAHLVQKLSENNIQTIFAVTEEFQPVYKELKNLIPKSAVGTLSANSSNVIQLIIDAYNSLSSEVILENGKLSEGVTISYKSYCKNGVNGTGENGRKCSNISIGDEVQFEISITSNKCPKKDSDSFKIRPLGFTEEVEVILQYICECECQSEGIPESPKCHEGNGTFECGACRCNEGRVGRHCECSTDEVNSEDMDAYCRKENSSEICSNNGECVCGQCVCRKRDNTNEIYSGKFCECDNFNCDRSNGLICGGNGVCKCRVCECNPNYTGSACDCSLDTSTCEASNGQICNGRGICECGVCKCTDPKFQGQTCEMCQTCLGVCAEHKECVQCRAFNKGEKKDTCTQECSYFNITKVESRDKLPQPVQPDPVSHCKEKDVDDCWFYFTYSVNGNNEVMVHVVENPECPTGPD

| IC50 (soluble VLA-4) [nM] | SMILES | ED 50 value, suppression of the increase in the ratio of ear swelling ([1]; 0.38% DNFB on right auricle, compound in ethanol applied to the auricle before induction) [mg/kg] | suppression of the increase in the ratio of ear swelling from DNFB induction ([1]; DNFB-induced, compound applied to the auricle before induction) |
| --- | --- | --- | --- |
| 110 | Cc1cccc(Cl)c1S(=O)(=O)NC(CNC(=O)N1CCC2(CC1)C(=O)N(C)CN2c1ccccc1)C(=O)O (centres unmarked) [Compound 8, 2-(((2-Chloro-6-methylphenyl)sulfonyl)amino)-3-((2,4,8-triaza-2-methyl-1-oxo-4-phenylspiro[4.5]dec-8-yl)carbonylamino)propanoic acid] |  |  |
| 110 | CC(=O)N1CCC[C@H]1C(=O)NC(CNC(=O)N1CCC2(CC1)C(=O)NCN2c1ccccc1)C(=O)O (stereo partly drawn) [Compound 16, 2-(((2S)-1-Acetylpyrrolidine-2-yl)carbonylamino)-3-((2,4,8-triaza-1-oxo-4-phenylspiro[4.5]dec-8-yl)carbonylamino)propanoic acid] | 0.8 | suppressed the increase in the ratio of ear swelling in a dose-dependent manner |
| 65 | CC(=O)N1CCCCC1C(=O)NC(CNC(=O)N1CCC2(CC1)C(=O)NCN2c1ccccc1)C(=O)O (centres unmarked) [Compound 18, 2-((1-Acetyl(2-piperidyl))carbonylamino)-3-((2,4,8-triaza-1-oxo-4-phenylspiro[4.5]dec-8-yl)carbonylamino)propanoic acid] |  |  |
